Reference: patent US20110294728A1, “Antiviral Polypeptides” (priority 2008, published 2011)
Where no end group is shown, it is not given here.

Experiments:
HIV-1 integrase = target: T1, HIV-1 integrase (Human immunodeficiency virus type 1 group M subtype B, UniProt P04585); test: biochemical
T1 construct: Integrase is a 32 kDA viral protein that is biologically active under a multimeric form
Method: The simultaneous measurement of integrase-DNA interaction and subsequent 3′-processing activity by steady-state fluorescence anisotropy was performed as described in Guiot et al. (2006). […] After the initial DNA-binding step (performed at 25° C.), the 3′-processing activity was measured at 37° C. by fixed-time experiments: The reaction was stopped at varying times by adding SDS (0.25% final) which disrupts all IN-DNA complexes in the sample. The IN-mediated cleavage of the terminal GT dinucleotide (labeled by fluorescein on the 3′-end) leads to a significant decrease of r as compared to the r value corresponding to the fluorescein-labeled unprocessed DNA substrate. The fraction of released dinucleotide is calculated by using Eq. (1): […]

in vivo = conditions: for half-life: female, BALB/c, mouse, in vivo, iv, 10 μg; for tissues with peptide accumulation: formulated with CADY-2c/CADY-1S1, after 24 hr; for time of optimal distribution: formulated with CADY-2c/CADY-1S1, intravenous; for distribution of naked peptide: intravenous, after 15 min
Method: In order to evaluate the potency of the peptides p27 (SEQ ID NO: 25) and p16 (SEQ ID NO: 19) in vivo, it was analyzed their ability to be systemically administrated by intravenous injection in mice (BALB/c; 6 to 8 week-old female mice). Peptides were either radio-labeled at the N-terminal amino acid or fluorescently labeled with Alexa® Fluo700 probe. […] Particles were injected intravenously (100 μl) and kinetic of peptide distribution were followed by fluorescence live imaging. 24 hr after injection, the level of peptides in the different tissues were quantified by fluorescence and radioactivity.

HIV-1 strain RF = conditions: strain RF (RP in Table 5); peptide with Pep-1 or Pep-3 at ratio 20/1; combinations with Pep-3
[1] = test system: efavirenz-resistance HIV strain harbouring K103N and N341V mutations on reverse transcriptase; assay type: in vivo, Hu-PBL-SCID transgenic mice; conditions: EFZ resistance strain; 20 mg/kg/day; peptides formulated with CADY-2c/CADY-1S1
Method: The potency of the peptides p27 (SEQ ID NO: 25) and p16 (SEQ ID NO: 19) was assessed in vivo following intravenous challenge of Hu-PBL-SCID transgenic mice (in which human (hu) peripheral blood leukocytes (PBLs) from healthy Epstein-Barr virus (EBV)-seropositive donors are injected into severe combined immunodeficiency (SCID) mice; Mosier et al., 1988). The mice (6 to 8 week-old male mice, 5 animals per group) were infected with wild type HIV 1 virus or efavirenz-resistance HIV strain harbouring K103N and N341V mutations on reverse transcriptase. Infected mice were treated with peptides formulated with the peptide vector CADY-2c (see above) in water at a ratio 1/20, and then particles were coated with 3% of CADY-1S1 (see above), as described in International Application WO 2007/069090. Particles were injected intravenously (100 μl) every 2 days for 1 week, then HIV-1 copy were quantified by quantitative PCR. Efavirenz (a non-nucleoside reverse transcriptase inhibitor; EFZ) was used a positive drug control.

IN/DNA complexes = IN/DNA complexes (Human immunodeficiency virus type 1 group M subtype B, UniProt P04585); test: Dissociation of pre-formed IN-DNA substrate complexes; assay type: biochemical, HIV-1
Method: For dissociation experiments, IN-DNA substrate complexes were pre-formed at 25° C. before addition of peptides. The peptide-mediated dissociation of complexes was then studied at the same temperature by measuring the decrease in the r value as a function of time.

HIV-1 RT = target: T2, HIV-1 RT (Human immunodeficiency virus type 1 group M subtype B, UniProt P03366); test: biochemical
T2 construct: The heterodimeric p66/p51 RT was eluted with an imidazole gradient; p66 and p51 derived from p66 by proteolytic cleavage of the C-terminal RNAse H domain; made in house; host or cells: E. coli (M15 for the His-tagged subunits)
Procedure, shortened: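 HIV-1 RT (20 nM, as added) was preincubated 23 h with increasing peptide concentrations, then reaction buffer was added (Tris pH 8.0, KCl, MgCl2, DTT, 0.15 µM poly(rA)-(dT)15, 15 µM dTTP plus 3H-dTTP, as added) for 30 min at 37 °C. Incorporated 3H was measured after TCA precipitation and filtration by scintillation counting; mean of three experiments.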

In the case of GTKWLTEVWPL [Peptide P16], the EC50 (HIV-1 integrase) is reported as 10 µM, the Ki (HIV-1 integrase) is reported as 10 µM and the half-life (in vivo) is reported as < 1 h. The “tissues with peptide accumulation” value (in vivo) was “liver, brain, stomach, kidney, lung”, the “time of optimal distribution” value (in vivo) was 5 h and the “distribution of naked peptide” value (in vivo) was “accumulated mainly in the bladder”. For the same sequence, the IC50 (HIV-1 strain RF) was 0.0109 µM, the “reduction of viral propagation” value [1] was 58% and the EC50 (IN/DNA complexes) was 11 µM. For the same sequence, the Ki (HIV-1 RT) was 14.4 µM and the “reduction of efficiency (higher Ki) relative to PAW” value (HIV-1 RT; relative to PAW) was 20 fold.

For GTKWLTEWIPLTAE [Peptide P27], the EC50 (HIV-1 integrase) was > 100 µM, the Ki (HIV-1 integrase) was > 100 µM and the half-life (in vivo) was < 1 h. The “tissues with peptide accumulation” value (in vivo) was “liver, brain, stomach, kidney, lung”, the “time of optimal distribution” value (in vivo) was 5 h and the “distribution of naked peptide” value (in vivo) was “accumulated mainly in the bladder”. For the same sequence, the IC50 (HIV-1 strain RF) was 0.0015 µM, the “reduction of viral propagation” value [1] was 72% and the EC50 (IN/DNA complexes) was > 100 µM. For the same sequence, the Ki (HIV-1 RT) was 0.05 ± 1e-05 µM and the “increase of efficiency relative to PAW” value (HIV-1 RT; relative to PAW) was 14 fold.
